# Assay results published in ChEMBL document CHEMBL1201862, “PubChem BioAssay data set” (2004).
# Active and inactive are the calls of the source. Unless noted, the calls are words filed in the database; no cut-off is given here.
# How the values were obtained:
# [1] = molecular target: Protein disulfide-isomerase A6 (Homo sapiens, UniProt Q15084); assay: reduced insulin turbidity driven by ERp5 (PDIA6) – biochemical, absorbance 650 nm, cherry-picked samples, dose response (AID 720566)
# [2] = molecular target: T1, DNA repair and recombination protein RAD54-like (Homo sapiens, UniProt Q92698); assay: RAD54 Holliday junction migration blockers – biochemical, fluorescence, cherry-picked samples, dose series, confirmation (AID 651657); format: functional
# T1 sequence (Q92698 whole entry): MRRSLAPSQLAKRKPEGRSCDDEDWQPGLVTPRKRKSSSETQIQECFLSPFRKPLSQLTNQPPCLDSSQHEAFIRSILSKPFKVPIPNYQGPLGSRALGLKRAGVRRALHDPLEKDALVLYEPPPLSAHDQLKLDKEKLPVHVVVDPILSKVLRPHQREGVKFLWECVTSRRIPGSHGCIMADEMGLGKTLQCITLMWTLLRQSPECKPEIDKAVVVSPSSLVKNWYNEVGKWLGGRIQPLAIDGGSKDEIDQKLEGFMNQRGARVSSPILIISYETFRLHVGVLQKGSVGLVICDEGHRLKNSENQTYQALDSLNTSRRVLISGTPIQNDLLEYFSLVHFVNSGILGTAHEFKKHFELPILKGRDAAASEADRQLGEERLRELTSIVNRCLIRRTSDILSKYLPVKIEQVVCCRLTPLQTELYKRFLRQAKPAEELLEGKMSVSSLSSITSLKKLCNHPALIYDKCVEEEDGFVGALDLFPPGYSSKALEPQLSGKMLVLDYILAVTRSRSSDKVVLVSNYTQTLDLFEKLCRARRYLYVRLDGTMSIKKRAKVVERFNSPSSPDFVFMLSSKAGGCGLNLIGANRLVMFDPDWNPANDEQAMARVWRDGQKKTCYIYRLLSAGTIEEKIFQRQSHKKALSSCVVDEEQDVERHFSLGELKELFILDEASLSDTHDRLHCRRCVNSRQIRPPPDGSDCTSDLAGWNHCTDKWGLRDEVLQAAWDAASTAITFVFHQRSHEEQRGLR
# [3] = viability loss in HEK293 cells – cell-based, plate reader, cherry-picked samples, cytotoxicity control, dose response (AID 743446); format: functional
# [4] = molecular target: Serine/threonine-protein kinase PLK4 (Homo sapiens, UniProt O00444); format: functional;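 further: PLK4 measured as one member of a kinome-wide kinase profiling panel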
# [5] = molecular target: Serine/threonine-protein kinase DCLK1 (Homo sapiens, UniProt O15075); format: functional;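 further: affinity for DCLK1 (listed as DCAMKL1) measured as one member of a kinome-wide kinase profiling panel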
# [6] = molecular target: Eukaryotic elongation factor 2 kinase (Homo sapiens, UniProt O00418); format: functional
# Sequence of Eukaryotic elongation factor 2 kinase (O00418 whole entry): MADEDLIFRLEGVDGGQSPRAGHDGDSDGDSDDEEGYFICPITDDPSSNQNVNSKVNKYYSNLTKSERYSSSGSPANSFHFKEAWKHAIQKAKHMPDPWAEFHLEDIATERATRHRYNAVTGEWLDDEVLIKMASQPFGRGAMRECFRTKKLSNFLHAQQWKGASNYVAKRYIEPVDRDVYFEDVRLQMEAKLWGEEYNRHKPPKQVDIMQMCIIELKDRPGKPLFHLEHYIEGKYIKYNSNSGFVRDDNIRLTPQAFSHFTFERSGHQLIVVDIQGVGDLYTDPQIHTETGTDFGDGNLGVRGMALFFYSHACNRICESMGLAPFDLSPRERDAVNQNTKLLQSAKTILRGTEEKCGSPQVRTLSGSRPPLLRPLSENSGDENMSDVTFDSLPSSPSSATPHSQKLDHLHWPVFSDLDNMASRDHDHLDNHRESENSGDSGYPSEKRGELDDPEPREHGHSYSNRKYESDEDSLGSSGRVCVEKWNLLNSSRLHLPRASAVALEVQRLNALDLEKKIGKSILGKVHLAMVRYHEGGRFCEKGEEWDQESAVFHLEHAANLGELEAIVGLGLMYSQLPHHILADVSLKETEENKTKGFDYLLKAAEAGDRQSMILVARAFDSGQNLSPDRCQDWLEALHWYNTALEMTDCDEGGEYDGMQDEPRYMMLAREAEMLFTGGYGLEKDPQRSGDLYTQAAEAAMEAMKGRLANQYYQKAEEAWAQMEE
# Sequence of Protein disulfide-isomerase A6 (Q15084 whole entry): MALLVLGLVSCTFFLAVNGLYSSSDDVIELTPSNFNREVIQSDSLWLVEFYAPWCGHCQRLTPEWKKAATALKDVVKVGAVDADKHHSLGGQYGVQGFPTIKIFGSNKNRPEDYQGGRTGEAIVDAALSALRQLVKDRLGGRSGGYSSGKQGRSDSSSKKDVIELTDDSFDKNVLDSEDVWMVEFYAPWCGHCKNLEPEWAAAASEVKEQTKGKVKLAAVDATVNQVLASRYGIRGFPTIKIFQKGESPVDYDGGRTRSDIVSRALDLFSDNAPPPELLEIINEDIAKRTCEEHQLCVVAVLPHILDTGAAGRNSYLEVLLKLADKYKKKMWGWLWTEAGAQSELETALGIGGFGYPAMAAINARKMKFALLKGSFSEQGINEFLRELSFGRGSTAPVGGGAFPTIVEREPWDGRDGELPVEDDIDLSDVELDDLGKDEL
# Sequence of Serine/threonine-protein kinase DCLK1 (O15075 whole entry): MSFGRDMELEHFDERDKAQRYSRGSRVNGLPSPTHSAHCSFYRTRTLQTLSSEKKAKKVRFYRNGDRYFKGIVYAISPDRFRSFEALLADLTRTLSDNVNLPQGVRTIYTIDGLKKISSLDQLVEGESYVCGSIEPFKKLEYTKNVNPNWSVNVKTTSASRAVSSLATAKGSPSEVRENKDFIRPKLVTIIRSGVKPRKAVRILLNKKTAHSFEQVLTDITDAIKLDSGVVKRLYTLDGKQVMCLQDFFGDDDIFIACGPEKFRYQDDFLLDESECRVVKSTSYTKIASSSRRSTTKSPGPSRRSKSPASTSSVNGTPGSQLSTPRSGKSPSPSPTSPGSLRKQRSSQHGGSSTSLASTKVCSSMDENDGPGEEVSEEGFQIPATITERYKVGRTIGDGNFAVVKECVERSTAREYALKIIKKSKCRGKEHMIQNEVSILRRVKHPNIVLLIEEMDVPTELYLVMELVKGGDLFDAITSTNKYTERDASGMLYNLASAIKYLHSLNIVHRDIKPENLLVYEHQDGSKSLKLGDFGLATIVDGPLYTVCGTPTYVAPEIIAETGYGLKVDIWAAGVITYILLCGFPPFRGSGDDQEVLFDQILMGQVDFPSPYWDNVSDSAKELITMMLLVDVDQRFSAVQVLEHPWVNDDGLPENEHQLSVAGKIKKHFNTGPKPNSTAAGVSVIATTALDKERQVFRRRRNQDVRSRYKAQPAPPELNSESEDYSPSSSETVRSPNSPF
# Sequence of Serine/threonine-protein kinase PLK4 (O00444 whole entry): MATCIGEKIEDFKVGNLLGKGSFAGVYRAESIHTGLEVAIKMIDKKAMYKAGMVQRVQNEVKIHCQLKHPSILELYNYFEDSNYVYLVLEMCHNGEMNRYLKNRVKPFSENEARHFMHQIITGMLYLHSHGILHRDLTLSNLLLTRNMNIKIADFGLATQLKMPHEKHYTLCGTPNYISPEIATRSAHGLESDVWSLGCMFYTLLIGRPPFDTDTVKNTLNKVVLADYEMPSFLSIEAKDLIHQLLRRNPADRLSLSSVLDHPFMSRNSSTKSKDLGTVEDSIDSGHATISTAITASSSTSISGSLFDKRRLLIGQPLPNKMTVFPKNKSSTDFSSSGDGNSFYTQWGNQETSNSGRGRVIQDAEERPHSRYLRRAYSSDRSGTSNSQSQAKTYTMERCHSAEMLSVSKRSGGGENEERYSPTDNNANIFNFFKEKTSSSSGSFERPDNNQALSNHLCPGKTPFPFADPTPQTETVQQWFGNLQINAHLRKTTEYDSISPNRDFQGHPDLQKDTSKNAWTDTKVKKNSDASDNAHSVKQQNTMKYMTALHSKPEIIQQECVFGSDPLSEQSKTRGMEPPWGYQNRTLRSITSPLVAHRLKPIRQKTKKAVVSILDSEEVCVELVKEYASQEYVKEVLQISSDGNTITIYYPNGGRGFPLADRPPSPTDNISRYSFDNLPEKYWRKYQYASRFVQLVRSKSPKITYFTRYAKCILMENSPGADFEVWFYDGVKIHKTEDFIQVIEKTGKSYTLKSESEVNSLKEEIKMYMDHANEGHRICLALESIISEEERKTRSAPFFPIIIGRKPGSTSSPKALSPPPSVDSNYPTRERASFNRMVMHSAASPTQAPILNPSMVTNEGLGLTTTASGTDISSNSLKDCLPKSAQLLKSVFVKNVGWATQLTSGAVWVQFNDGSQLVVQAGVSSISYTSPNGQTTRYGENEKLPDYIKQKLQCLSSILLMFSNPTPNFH
SMILES,AC50 [1],AC50 [2],AC50 [3],Ki [4],Ki [5],Ki [6]
CCCc1nc2c(=O)n(C)c(=O)nc-2n(C)n1,0.513 µM (active),1.13 µM (active),27.1 µM (active),–,–,–
COc1cc2ncn(-c3cc(OCc4ccccc4C(F)(F)F)c(C(N)=O)s3)c2cc1OC [GW843682X],–,–,–,0.2 µM (active),> 10 µM (inactive),> 3.98 µM (inactive)
